Experiment [1] concerns Strep. pyogenes. The experiment can be described thus: in vivo activity in mice infected with a lethal inoculum, survivors. The settings on record: for IN VIVO Survivors (PO) Strep. pyogenes / IN VIVO Survivors-SC Strep. pyogenes / responders at 50 mg/kg: 50 mg./kg., survivors/treated mice; for responders at 100 mg/kg / responders at 50 mg/kg: Streptococcus pyogenes; for responders at 100 mg/kg: footnote (c): dosage = 100 mg./kg. As for the experimental part:
(§1) In determining in vivo activity of the quinoxaline-1,4-dioxides of this invention, the test compound is administered to mice which have been infected by […] injection of a lethal inoculum of pathogenic bacteria. The test compound is administered using a multiple dosing regimen and using either the oral (PO) or the subcutaneous (SC) route. The inoculum of bacteria varies from about 1 to about 10 times the amount needed to kill 100% of the mice under the conditions of the test. At the end of the test, the activity of the compound is assessed by counting the number of survivors among the treated animals.
(§2) In vitro and in vivo activity of representative compounds of this invention, determined as aforesaid, are reported in the following tabulation for compounds of the formula: ##SPC3##

Experiment [2] relates to E. coli. The experiment is described as above. The settings on record: for IN VIVO Survivors-SC E. coli / responders at 25 mg/kg: subcutaneous; for IN VIVO Survivors-SC E. coli / responders at 25 mg/kg / IN VIVO Survivors (PO) E. coli: 25 mg./kg., survivors/treated mice. As for the experimental part:
as §1, §2

Experiment [3] concerns Strep. pyogenes. The experiment can be described thus: in vitro antibacterial activity, two-fold serial dilution in Brain-Heart Infusion Broth, MIC. The settings on record: overnight, anaerobic; for MIC: Streptococcus pyogenes. Type of experiment: cell-based. How it is done: (§3) The broth is inoculated with bacteria and with the test quinoxaline-1,4-dioxide and then it is incubated overnight under anerobic conditions. On the next day, the test is read visually. The minimum inhibitory concentration (MIC) of the test compound is the lowest concentration which prevents turbidity, i.e., which prevents growth of the microorganism.
as §2

The subject of experiment [4] is E. coli. The description is as above. Type of experiment: cell-based. The conditions noted are these: for MIC: Escherichia coli, read-out: IN VITRO MIC E. coli. As for the experimental part:
as §3, §2

Setting [5] is: Brain-Heart Infusion Broth, overnight, anaerobic.
Where [6] appears, read: sc, subcutaneous, read-out: IN VIVO Survivors-SC Strep. pyogenes (converted).
Setting [7] is: oral, read-out: IN VIVO Survivors (PO) Strep. pyogenes (converted).

In brackets after ≈: the same amount, converted by molar mass. Like-named read-outs stand apart in the source and are kept apart here.

The MIC is the lowest concentration found to suppress growth.

As for “6-(7)-Formyl-N-(2-Hydroxyethyl)-3-Methyl-2-Quinoxalinecarboxamide 1,4-Dioxide Ethylene Acetal [NHCH2 CH2 OH 6(7)-OO.angle.C.angle.H CH3]”, the “IN VIVO Survivors (PO) Strep. pyogenes” value in the experiment on Strep. pyogenes [1] (oral) is reported as 3/10. For the same compound, the “IN VIVO Survivors-SC Strep. pyogenes” value with Strep. pyogenes [1] (subcutaneous) was 2/10. In addition, the “IN VIVO Survivors-SC E. coli” value in the experiment with E. coli [2] was 3/10. The “IN VITRO MIC Strep. pyogenes” value in the experiment with Strep. pyogenes [3] was found to be 0.781 µg/mL. In addition, the “IN VITRO MIC E. coli” value in the experiment on E. coli [4] (setting [5]) was determined as 25 µg/mL.
As to `CC(=O)c1ccc2c(c1)[n+]([O-])c(C)c(C(=O)N(C)C)[n+]2[O-]` [N(CH3)2 6-COCH3 CH3], the responders at 100 mg/kg was 60% in the experiment with Strep. pyogenes [1] (sc, subcutaneous, read-out: IN VIVO Survivors-SC Strep. pyogenes) and 50% in the experiment on Strep. pyogenes [1] (oral, read-out: IN VIVO Survivors (PO) Strep. pyogenes). The responders at 25 mg/kg in the experiment on E. coli [2] (Escherichia coli, sc) is 20%. Besides, the “IN VIVO Survivors (PO) E. coli” value in the experiment on E. coli [2] is recorded as 0/5. Besides, the MIC in the experiment with Strep. pyogenes [3] and in the experiment with E. coli [4] was 6.25 µg/mL (≈ 21.6 µM) throughout.
Regarding `CC(=O)c1ccc2c(c1)[n+]([O-])c(C(=O)N(C)C)c(C)[n+]2[O-]` [N(CH3)2 7-COCH3 CH3], the responders at 50 mg/kg in the experiment with Strep. pyogenes [1] (setting [6]) is 60%; in the experiment on Strep. pyogenes [1] (setting [7]), 20%. The compound further yielded a responders at 25 mg/kg in the experiment with E. coli [2] (Escherichia coli, sc) of 0%. In addition, the MIC against Strep. pyogenes [3] and with E. coli [4] (setting [5]) was 6.25 µg/mL (≈ 21.6 µM) in each case.
With `CC(=O)c1ccc2c(c1)[n+]([O-])c(C)c(C(N)=O)[n+]2[O-]` [NH2 6-COCH3 CH3, 6- and 7-Acetyl-3-Methyl-2-Quinoxalinecarboxamide 1,4-dioxide], the responders at 50 mg/kg was 100% in the experiment on Strep. pyogenes [1] (setting [6]) and 90% in the experiment on Strep. pyogenes [1] (setting [7]). Also, in the experiment on E. coli [2] (Escherichia coli, sc), the responders at 25 mg/kg is 100%. Also, in the experiment on E. coli [2], the “IN VIVO Survivors (PO) E. coli” value is listed as 5/5. The minimum inhibitory concentration (MIC) in the experiment with Strep. pyogenes [3] and in the experiment with E. coli [4] (setting [5]) was below 0.391 µg/mL throughout.
As to `CC(=O)c1ccc2c(c1)[n+]([O-])c(C(N)=O)c(C)[n+]2[O-]` [NH2 7-COCH3 CH3, 6- and 7-Acetyl-3-Methyl-2-Quinoxalinecarboxamide 1,4-dioxide], the responders at 50 mg/kg with Strep. pyogenes [1] (setting [6]) is 100%; in the experiment with Strep. pyogenes [1] (setting [7]), 80%. The compound also showed a responders at 25 mg/kg in the experiment with E. coli [2] (Escherichia coli, sc) of 100%. Also, the figures for the MIC against Strep. pyogenes [3] and in the experiment on E. coli [4] (setting [5]) were 0.391 µg/mL (≈ 1.5 µM) and below 0.391 µg/mL, respectively.
Regarding `Cc1c(C(N)=O)[n+]([O-])c2cc(C3(C)OCCO3)ccc2[n+]1[O-]` [NH2 7-OO.angle.C.angle.CH3 CH3], the responders at 50 mg/kg in the experiment on Strep. pyogenes [1] (setting [6]) and with Strep. pyogenes [1] (setting [7]) was 80% in each case. In the experiment on E. coli [2] (Escherichia coli, sc), the responders at 25 mg/kg was 100%. Moreover, the “IN VIVO Survivors (PO) E. coli” value with E. coli [2] is reported as 3/5. The MIC in the experiment with Strep. pyogenes [3] and with E. coli [4] (setting [5]) was 12.5 µg/mL (≈ 40.9 µM) each time.
As for `CC(=O)c1ccc2c(c1)[n+]([O-])c(C)c(C(=O)NCCO)[n+]2[O-]` [NHCH2 CH2 OH 6-COCH3 CH3], the responders at 50 mg/kg was 50% in the experiment on Strep. pyogenes [1] (setting [6]) and 20% with Strep. pyogenes [1] (setting [7]). The responders at 100 mg/kg in the experiment on E. coli [2] (Escherichia coli, sc, read-out: IN VIVO Survivors-SC E. coli) worked out at 30%. The MIC against Strep. pyogenes [3] and in the experiment with E. coli [4] (setting [5]) was below 0.391 µg/mL throughout.
On to `CNC(=O)c1c(C)[n+]([O-])c2cc(C(C)=O)ccc2[n+]1[O-]` [NHCH3 6-COCH3 CH3], for which the figures for the responders at 50 mg/kg in the experiment with Strep. pyogenes [1] (setting [6]) and with Strep. pyogenes [1] (setting [7]) were 60% and 40%, respectively. In the experiment with E. coli [2] (Escherichia coli, sc), this compound gave a responders at 25 mg/kg of 80%. In the experiment on E. coli [2], the “IN VIVO Survivors (PO) E. coli” value is 7/10. Moreover, the minimum inhibitory concentration (MIC) in the experiment on Strep. pyogenes [3] was 0.781 µg/mL (≈ 2.84 µM); with E. coli [4] (setting [5]) it was below 0.391 µg/mL.
With `CNC(=O)c1c(C)[n+]([O-])c2ccc(CO)cc2[n+]1[O-]` [NHCH3 7-CH2 OH CH3], the responders at 50 mg/kg in the experiment on Strep. pyogenes [1] (setting [6]) was 20%; in the experiment on Strep. pyogenes [1] (setting [7]), 10%. The responders at 25 mg/kg in the experiment on E. coli [2] (Escherichia coli, sc) came to 90%. In addition, the MIC in the experiment on Strep. pyogenes [3] is above 200 µg/mL; in the experiment on E. coli [4] (setting [5]), 6.25 µg/mL (≈ 23.7 µM).
Taken in the same sequence, the figures for `CNC(=O)c1c(C)[n+]([O-])c2ccc(C(C)=O)cc2[n+]1[O-]` [NHCH3 7-COCH3 CH3] were 50%, 90%, 60%, 0.391 µg/mL (≈ 1.42 µM) and 0.391 µg/mL (≈ 1.42 µM).
For the compound “Ethyl 6(7)-Hydroxymethyl-3-Methyl-2-Quinoxaline-Carboxylate 1,4-Dioxide [OCH2 CH3 6(7)-CH2 OH CH3]”, in the experiment with Strep. pyogenes [1] (oral), the “IN VIVO Survivors (PO) Strep. pyogenes” value is reported as 5/10. Also, the “IN VIVO Survivors-SC Strep. pyogenes” value in the experiment with Strep. pyogenes [1] (subcutaneous) is given as 6/10. In the experiment with E. coli [2], the “IN VIVO Survivors-SC E. coli” value is given as 4/10. Moreover, the “IN VITRO MIC Strep. pyogenes” value in the experiment on Strep. pyogenes [3] was 25 µg/mL. In the experiment on E. coli [4] (setting [5]), the “IN VITRO MIC E. coli” value is 25 µg/mL.
For the compound “N,3-Dimethyl-6(7)-Hydroxymethyl-2-Quinoxalinecarboxamide 1,4-Dioxide [NHCH3 6(7)-CH2 OH CH3]”, the “IN VIVO Survivors (PO) Strep. pyogenes” value in the experiment on Strep. pyogenes [1] (oral) is given as 3/10. Also, the “IN VIVO Survivors-SC Strep. pyogenes” value in the experiment on Strep. pyogenes [1] (subcutaneous) is given as 3/10. In addition, the “IN VIVO Survivors-SC E. coli” value in the experiment on E. coli [2] is listed as 8/10. Besides, the “IN VITRO MIC Strep. pyogenes” value in the experiment with Strep. pyogenes [3] is 50 µg/mL. For the same compound, the “IN VITRO MIC E. coli” value in the experiment on E. coli [4] (setting [5]) amounted to 25 µg/mL.
Consider “N-Methyl-6(7)-Hydroxymethyl-2-Quinoxalinecarboxamide 1,4-Dioxide [NHCH3 6(7)-CH2 OH H]”, for which the “IN VIVO Survivors (PO) Strep. pyogenes” value in the experiment on Strep. pyogenes [1] (oral) was 6/10. Besides, the “IN VIVO Survivors-SC Strep. pyogenes” value in the experiment on Strep. pyogenes [1] (subcutaneous) is given as 10/10. Further, the “IN VIVO Survivors-SC E. coli” value in the experiment on E. coli [2] is given as 4/10. For the same compound, the “IN VITRO MIC Strep. pyogenes” value in the experiment with Strep. pyogenes [3] turned out to be 0.781 µg/mL. Also, in the experiment with E. coli [4] (setting [5]), the “IN VITRO MIC E. coli” value is 1.562 µg/mL.

The record behind these values is patent US3948911A, “Substituted quinoxaline-2-carboxamide 1,4-dioxides” (Pfizer Inc., priority 1974, dated 1976).
